Measurements: PubChem BioAssay AID540269 (Sanford-Burnham Center for Chemical Genomics, 2011)
Active and inactive are the calls of the source. How the calls were made is not given here.

Each molecule was assayed against glucose-6-phosphate dehydrogenase-6-phosphogluconolactonase (Plasmodium falciparum 3D7) (assay: PfG6PD enzyme inhibitors, kinetic NADPH readout, dose response, orthogonal assay, biochemical, kinetic NADPH detection (AID 540269)). Conditions: purified PfG6PD-6PGL.
For O=C1C=C(NCCc2cc(Br)c(O)c(Br)c2)C(=O)c2ncccc21, the IC50 was > 80 µM (inactive). In the case of Cc1ccc(S(=O)(=O)NNc2ccccc2)cc1, the IC50 is reported as 54.1 µM. With Cc1cc(NC(=O)c2oc3ccccc3c2C)ccc1-n1cnnn1 the IC50 was 14.9 µM. COc1cccc(/C=N/NC(=O)CSc2cccc3cccnc23)c1 was tested, and the IC50 was 21.7 µM. In the case of COc1cc(OC)c(C2CC(=O)N3CN(c4ccccc4)CSC3=C2C#N)cc1OC (configuration not stated), the IC50 is reported as > 80 µM (inactive). In the case of Fc1cccc(Cl)c1CNc1ccc(N2CCCC2)cc1, the IC50 is reported as > 80 µM (inactive). For O=C1C=CC(=O)N1c1ccc(N2CCCCC2)cc1, the IC50 was 37 µM. In the case of CN(C)c1ccc(C=c2c3cc(O)ccc3n3c2cc(-c2ccccc2)[n+]3C)cc1, the IC50 is reported as > 80 µM (inactive). CN(C)c1ncc(C2=C(Cl)C(=O)C(N3CCCC3)=C(Cl)C2=O)s1 gave an IC50 of 35.6 µM. With Cc1cc(N=NC(=O)c2ccccc2O)c2ccccc2c1O the IC50 was > 80 µM (inactive). Work on COc1ccc2c(c1)c(=Cc1ccc(N(C)C)cc1)c1cc(-c3ccccc3)[n+](C)n12 yielded an IC50 of 64.4 µM. With CN1CCN(C(=S)C(=O)Nc2ccc(Br)cc2)CC1 the IC50 was 57.7 µM. Cc1ccc(/C=C2\C(=O)NC(=S)N(c3ccccc3F)C2=O)s1 was tested, and the IC50 was > 80 µM (inactive). CCN=c1scc(C)n1/N=C/c1ccc(O)c(O)c1O showed an IC50 of 39.2 µM. In the case of Cc1ccc(S(=O)(=O)N(C)C)cc1NC(=O)CSc1nc2ncc(Cl)cc2[nH]1, the IC50 is reported as > 80 µM (inactive). For COc1ccc(S(=O)(=O)/N=C2\C=C(Nc3ccc(O)cc3)C(=O)c3ccccc32)cc1, the IC50 was > 80 µM (inactive). For O=c1c2ccc(F)cc2sn1-c1ccccc1, the IC50 was 15.4 µM. For O=C1C(c2cc(=O)c3ccccc3[nH]2)=C(O)c2ccccc21, the IC50 was > 80 µM (inactive). In the case of O=S(=O)(NCc1csc(-c2ccccc2)n1)c1ccc(Cl)s1, the IC50 is reported as > 80 µM (inactive). With O=c1c2ccccc2sn1-c1ccccc1 the IC50 was 9.73 µM. OCc1ccccc1SSc1ccccc1CO was tested, and the IC50 was 53.1 µM. CCN(CC)c1ccc(NC(=O)c2cccc(C)c2)cc1S(=O)(=O)Nc1ccccc1OC showed an IC50 of 31.3 µM. N#Cc1c(C#N)c(SSc2c(C#N)c(C#N)c(N)n2-c2ccccc2)n(-c2ccccc2)c1N was tested, and the IC50 was > 80 µM (inactive). For COC1=C(OC)C(=O)C(Sc2ccc3ccccc3c2)=CC1=O, the IC50 was 23.3 µM. For COc1cc(N=c2ssnc2Cl)cc(OC)c1, the IC50 was > 80 µM (inactive). Molecule Cc1ccc(S(=O)(=O)Nc2nc(C)c(C(=O)N/N=C/c3ccccc3)s2)cc1 has an IC50 of 31 µM. C/C(Cn1nnc([N+](=O)[O-])n1)=N\NC(=O)c1ccccc1O gave an IC50 of 46.3 µM. Cc1ccc(NC(=O)c2cc(N3C(=O)C=CC3=O)ccc2N2CCOCC2)cc1Cl was tested, and the IC50 was > 80 µM (inactive). Work on O=c1c2ccccc2sn1-c1nccs1 yielded an IC50 of 23.1 µM. O=C(Nc1sc2c(c1C(=O)O)CCC2)c1ccc(F)cc1 was tested, and the IC50 was 41.3 µM. With NS(=O)(=O)c1ccc(N/N=C/c2ccc(O)c(O)c2O)c([N+](=O)[O-])c1 the IC50 was > 80 µM (inactive). O=C(CSc1nc2cc(Cl)ccc2s1)c1ccco1 was tested, and the IC50 was > 80 µM (inactive). With Cc1cc(C)c(S(=O)(=O)Nc2cc(SCC(=O)O)c(O)c3ccccc23)cc1C the IC50 was 41.4 µM. Cc1ccc(-c2csc(NC(=O)c3ccc(Br)cc3)c2C(=O)O)cc1 showed an IC50 of 29.7 µM. Work on O=[N+]([O-])c1cnc(Sc2ccncn2)c([N+](=O)[O-])c1 yielded an IC50 of 62.8 µM. Work on COc1ccc(-n2sc3ccccc3c2=O)cc1 yielded an IC50 of 14.7 µM. Cc1nnc(N/N=C\c2ccc(-c3cccc(C(=O)O)c3)o2)n1N showed an IC50 of 40.1 µM.
